# Literature values as cited in US20080293821A1, “Cooling compositions” (priority 2007, published 2008).
# Target: T1, recombinant cold-menthol receptor TRPM8 (mTRPM8) (Mus musculus, UniProt Q8R4D5)
# T1 construct: host or cells: HEK293 cells (recombinant expression)
# Conditions: mTRPM8 expressed in HEK293 cells, FLIPR; British Journal of Pharmacology 141, 737-745 (2004)
# T1 sequence (Q8R4D5 whole entry): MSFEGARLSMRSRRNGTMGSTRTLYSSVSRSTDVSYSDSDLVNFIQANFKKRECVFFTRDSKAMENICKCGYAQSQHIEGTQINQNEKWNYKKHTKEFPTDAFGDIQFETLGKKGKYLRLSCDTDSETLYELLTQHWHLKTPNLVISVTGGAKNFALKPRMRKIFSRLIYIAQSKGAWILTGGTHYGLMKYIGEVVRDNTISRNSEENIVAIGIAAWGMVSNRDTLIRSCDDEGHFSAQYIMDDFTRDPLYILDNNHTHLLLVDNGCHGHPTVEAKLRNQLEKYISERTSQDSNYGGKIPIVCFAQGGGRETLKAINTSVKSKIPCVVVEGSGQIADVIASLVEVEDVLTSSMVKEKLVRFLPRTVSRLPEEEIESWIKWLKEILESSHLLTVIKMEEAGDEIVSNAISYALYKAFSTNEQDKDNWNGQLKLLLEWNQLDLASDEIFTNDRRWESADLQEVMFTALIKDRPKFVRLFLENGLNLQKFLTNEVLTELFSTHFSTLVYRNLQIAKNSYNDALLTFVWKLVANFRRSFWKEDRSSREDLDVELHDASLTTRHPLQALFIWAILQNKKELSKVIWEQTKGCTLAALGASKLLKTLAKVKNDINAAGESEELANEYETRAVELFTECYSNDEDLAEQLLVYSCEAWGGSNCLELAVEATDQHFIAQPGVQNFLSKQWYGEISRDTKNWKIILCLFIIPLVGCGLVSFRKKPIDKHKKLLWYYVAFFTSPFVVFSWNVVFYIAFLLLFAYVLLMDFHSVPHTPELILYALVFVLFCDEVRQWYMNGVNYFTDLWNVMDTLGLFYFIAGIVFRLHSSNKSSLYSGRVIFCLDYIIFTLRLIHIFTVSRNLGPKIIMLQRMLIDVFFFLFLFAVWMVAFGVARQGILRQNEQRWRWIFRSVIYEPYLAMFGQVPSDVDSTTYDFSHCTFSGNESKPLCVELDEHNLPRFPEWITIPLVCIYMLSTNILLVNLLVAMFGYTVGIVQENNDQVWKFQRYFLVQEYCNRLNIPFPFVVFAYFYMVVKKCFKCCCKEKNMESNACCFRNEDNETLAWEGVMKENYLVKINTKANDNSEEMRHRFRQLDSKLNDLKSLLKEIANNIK
row,agonist activity on TRPM8,Structure (SMILES)
1,agonists,CC1CCC(C(C)C)C(OCC(O)CO)C1 (stereo not shown) [Cooling Agent 10]
2,agonists,"CC1CCC(C(C)C)C2(C1)OCC(CO)O2 (stereo not shown) [Frescolat MGA, 6-isopropyl-9-methyl-1,4-dioxaspiro-(4,5)-decane-2-methanol]"
3,agonists,"CC1CCC(C(C)C)C(OC(=O)C(C)O)C1 (stereo not shown) [Frescolat ML, menthyl lactate]"
4,agonists,C[C@@H]1CC[C@@H](C(C)(C)O)[C@H](O)C1 [PMD38]
5,agonists,"CCNC(=O)C1CC(C)CCC1C(C)C (stereo not shown) [WS-3, N-Ethyl-p-menthane-3-carboxamide]"
6,agonists,"CNC(=O)C(C)(C(C)C)C(C)C [WS-23, 2-Isopropyl-N,2,3-trimethylbutyramide]"
7,agonists,CC(C)=CCC/C(C)=C/CO [geraniol]
8,agonists,CC(CC=O)CCCC(C)(C)O (stereo not shown) [hydroxycitronellal]
9,agonists,C=CC(C)(O)CCC=C(C)C (stereo not shown) [linalool]

row,Structure (SMILES),agonist activity on TRPM8
1,C=C(C)[C@@H]1CC[C@@H](C)C[C@H]1O [Coolact P],agonists
